Assays:
[1] = tested on: WiDr human colon cancer cells; assay: Radiation dose response, colony formation after Ad infection and 5-FC; assay type: cell-based; conditions: No Viral Infection, 20 mg/ml 5-FC
Experimental: WiDr human colon cancer cells were plated at a density of 5×10^5 cells/well in 6-well tissue culture plates 24 hours prior to adenoviral infection. WiDr cells were then infected with AdCMVCD at a multiplicity of infection (MOI) of 1 or 10 plaque forming units (pfu) per cell in 0.5 ml Opti-Mem (Gibco-BRL) for 1.5 hours. A control virus that encodes the reporter gene E. coli LacZ which produces β-galactosidase (AdCMVLacZ) was provided by Dr. De-Chu Tang. Viral infection was stopped by the addition of 3 ml of complete growth media and the cells were returned to the incubator overnight. The following day, media was replaced with media supplemented with the appropriate concentration of 5-FC or no drug. The cells were then incubated in 5-FC for 3 days. The cells were then mock irradiated or irradiated on ice using a Picker ^60Co therapy unit (Cleveland, Ohio) at a dose rate of 80 cGy/min. The cells were then plated for colony formation. Colonies formed in 14 days and were fixed in ethanol and stained with 1% crystal violet.
SK-ChA-1 cells were infected with 10 MOI of AdCMVCD, or AdCMVLacZ, treated with 0, 10 or 20 μg/ml 5-FC for 72 hours, then irradiated with 0 or 8 Gy (80 cGy/min). The cells were irradiated on ice, then trypsinized, counted and plated in triplicate in 25 cm^2 tissue culture dishes (Costar) in media free of 5-FC. The plates were fixed and stained 14 days later. For both WiDr and SK-ChA-1 cells, colonies containing greater than 50 cells were counted. Percent survival was calculated as the average number of colonies counted divided by the number of cells plated times plating efficiency (PE); where PE was the fraction of colonies counted divided by cells plated without radiation. The dose response curve was fitted using the Fit v 2.4 software (provided by Dr. N. Albright, University of California at San Francisco, San Francisco, Calif.).

[2] = tested on: intracranial D54MG tumors; assay: Intracranial survival study; assay type: in vivo, athymic nude mice; conditions: for median survival time: FIG. 5
Experimental: D54MG human glioma cells (0.5×10^6 cells/mouse) were injected into the right frontal cortex of athymic nude mice (10 mice/group). Six days after tumor implantation (Day 0), a single dose of saline or 3.2×10^7 TCID50 AdCD-D314A was injected i.t. Mice then received 5 Gy fractions of radiation treatment on Days 1, 3, and 7 and 5-FC (500 mg/kg i.p. twice daily on Days 0-4, and 7-11) or saline and were subsequently monitored for survival.
D54MG human glioma cells (0.5×10^6 cells/mouse) were injected into the right frontal cortex of athymic nude mice (10 mice/group). Five days after tumor implantation, a single dose of PBS or 3.2×10^7 TCID50 AdbCD-D314A was injected i.t. on Day 5 Mice then received radiation treatment on Days 6, 9 and 13 at 2 or 5 Gy and 5-FC (500 mg/kg i.p. q2d×5/week for 3 weeks) and were subsequently monitored for survival.
D54MG tumors were established intracranially in athymic nude mice as described. Briefly, mice were anesthetized by i.p. administration of ketamine (20 mg/ml) and xylazine (0.3 mg/ml) in saline at 0.07 ml/10 g of body weight. A midline scalp incision was made, and a 0.5-mm burr hole was drilled 1.5-2.0 mm to the right of midline and 1 mm anterior to the coronal suture. D54MG cells were injected stereotactically at 0.5×10^6 cells (1×10^8/ml), using a 250 μl Hamilton syringe with a prepared 30 gauge needle mounted in a Stoelting stereotaxic apparatus. A plastic sleeve surrounding the needle allowed reproducible injections of tumor cells, saline or Ad to a depth of 2.5 mm. The needles were left in place for 2 min to minimize reflux of the tumor cells along the needle track. The scalp wounds were closed with Tissu-Mend glue to avoid scatter dose from metallic wound clips during radiation treatment. The mice were placed on a heating pad in sterile microisolator polycarbonate cages and allowed to awaken from anesthesia. Tumors were allowed to grow for 6 days before the start of treatment (Day 0). Animals were randomly divided into groups receiving different treatments: 3.2×10^7 TCID50 AdbCD-D314A in 10 μl saline; AdbCD-D314A in combination with radiation; AdbCD-D314A plus 5-FC; AdbCD-D314A plus 5-FC in combination with radiation, intratumoral saline followed by intraperitoneal 5-FU and intratumoral saline plus 5-FC and radiation. On the day after AdbCD-D314A injection, mice were treated i.p. with either saline or 5-FC twice daily at 500 mg/kg on Days 0 to 4, and 7 to 11 and monitored daily for survival. Radiation therapy consisted of 15 Gy ^60Co delivered in 5 Gy fractions to the whole brain, on Days 1, 3 and 7. Irradiated mice were immobilized in individual Lucite chambers with their heads positioned in an 8×32 cm collimated field. Animals were shielded with 3 cm of lead placed over the chamber, extending from behind the ears to the tail.

[3] = tested on: Neuro-2a murine neuroblastoma cells; assay: HSV replication in vitro, plaque titration on Vero cells; assay type: cell-based; conditions: 50 μM 5-FU in growth medium; first evident at 48 h post-infection
Experimental: M012 replication was compared to R3659 replication over time in murine Neuro-2a tumor cells at both high (5.0) and low (0.1) MOI. Infected cells were grown in either growth medium alone or growth medium containing 5-FC (500 μM) or 5-FU (50 μM) by determining viral titers at 12, 24, 48, 72, and 96 h post-infection in the presence or absence of 500 μM 5-FC or 50 μM 5-FU. Virus recovery at the different time points was determined by titering on Vero cells. Experiments were performed in duplicate. Inhibition was most significant at high MOI, with P=0.002.
To establish replication competence of M012 in murine tumor cell lines in vitro, Neuro-2a murine neuroblastoma cells were infected with either the parent Dg134.5 HSV, R3659, or M012 using a low (0.1) or high (5.0) MOI. To determine if high concentrations of 5-FC might interfere with HSV replication, cells were incubated in the presence of either 500 μM 5-FC or 50 μM 5-FU, or media alone and infected cells were harvested at 12, 24, 48, 72, and 96 h post-infection. Total PFU recovered at each time point was determined by plaque titration on Vero cells (FIG. 9). At both MOI, M012 replication in DMEM alone was similar to its parent virus, R3659. […] The addition of 5-FC to the growth medium following infection inhibited M012 replication, but had no effect on R3659 replication at either MOI. […]

Structure (SMILES) | Linear Quadratic Parameters a [1] | Linear Quadratic Parameters al [1] | Linear Quadratic Parameters b [1] | Single Hit Multiple Target Do [1] | Single Hit Multiple Target Dq [1] | median survival time ([2]; 5-FC) [days] | median survival time ([2]; 5-FC plus radiation) [days] | survival SF50 ([2]; FIG. 19, mock-infected, 5-FC) [days] | survival ([2]; preliminary study, mock-infected, 5-FC) [days] | reduction in replication of M012 or R3659 [3]
Nc1nc(=O)[nH]cc1F [5-FC, 5-fluorocytosine] | 0 | 0 | 0.04 | 1.760 | 3.679 | 17 | 30 | 23 | 13 | 
O=c1[nH]cc(F)c(=O)[nH]1 [5-FU, 5-fluorouracil] |  |  |  |  |  |  |  |  |  | 1.0-2.0 log

Reference: patent US20070225245A1, “Viral vector driven mutant bacterial cytosine deaminase gene and uses thereof” (priority 1998, published 2007)
